Measurements taken from US6924288B2, “Enantiomerically pure opioid diarylmethylpiperzine and methods of using same” (priority 2001, dated 2005).

What was measured:
[1] = biological target: T1, Delta receptor, mouse vas deferens (Mus musculus, UniProt P32300); experiment: Mouse vas deferens, inhibition of electrically induced contractions, delta; type: cell-based; conditions: read-out: Mouse Vas Deferens ED50 (nM) δ
T1 construct: Mouse vasa deferentia (MVD), CD-1 strain, Harlan, Raleigh, N.C.) were removed from mice; tissue Harlan, Raleigh, N.C; (animals); host or cells: mouse vas deferens, CD-1 strain
Protocol: The compound of formula (I) and compounds 1, 3, 4, 5 and 6 as identified above, were evaluated for in vitro opioid receptor activity in various receptor systems, including mouse vas deferens (Mouse Vas Deferens ED50), and guinea pig ileum (Guinea Pig Ileum ED50). The assay procedures used for such determinations of receptor activity are set out below.
In vitro bioassays: Mouse vasa deferentia (MVD), CD-1 strain, Harlan, Raleigh, N.C.) were removed from mice and suspended between platinum electrodes with 0.5 g of tension in organ bath chambers containing a modified Mg^++ free Krebs buffer of the following composition (millimolar): NaCl, 117.5; KCl, 4.75; CaCl2, 2.6; KH2PO4, 1.20; NaHCO3, 24.5; and glucose, 11. The buffer was saturated with 95% O2/5% CO2 and kept at 37° C. Tissues were stimulated at supramaximal voltage with 10-Hz pulse trains for 400-msec.; train interval 10 seconds; and 1.0 msec pulse duration at maximal voltage. Delta receptor activity was determined by adding appropriate concentrations of test compound to organ baths and allowing a maximal response before addition of the next higher concentration.
The ED50 values were extrapolated from curves showing the dose concentration plotted against the response (J. A. H. Lord, A. A. Waterfield, J. Hughes, H. W. Kosterlitz, Nature 267, 495, (1977)).

beagle dogs = experiment: Emesis observation in beagle dogs, escalating i.v. doses; type: in vivo, dog; conditions: i.v. slow bolus, 0.1, 0.3 and 0.5 mg/kg
Excerpt: The following describes a procedure that provided observations on the emesis effects of (−)-3-((S)-((2S,5R)-4-allyl-2,5-dimethyl-1-piperazinyl)(3-thienyl)methyl)phenol (DPI-125). Three adult male beagle dogs were separately administered (−)-3-((S)-((2S,5R)-4-allyl-2,5-dimethyl-1-piperazinyl)(3-thienyl)methyl)phenol (DPI-125) in escalating dosages. Doses were chosen to produce blood levels consistent with strong to extreme analgesia and that would produce obvious pharmacological effects including lethargy and sedation. The compound was dissolved in sterile 5% dextrose solution that was buffered with acetic acid/sodium acetate buffer and administered intravenously in a slow bolus injection over 1-2 minutes. Firstly, the three dogs were administered test volume dosages of buffered 5% dextrose to ensure there was no reaction to the vehicle. Secondly, (−)3-((S)-((2S,5R)-4-allyl-2,5-dimethyl-1-piperazinyl)(3-thienyl)methyl)phenol (DPI-125) was administered in single injections at escalating dosages of 0.1, 0.3 and 0.5 mg/kg, with an intervening seven-day period before giving the next highest dose.

μ opioid receptor = biological target: T2, μ opioid receptor (Rattus norvegicus, UniProt P33535); experiment: Radioligand binding, [3H]DAMGO competition, rat brain membranes
T2 construct: tissue Pel-Freeze Biological Inc. (Rogers, Ark.); host or cells: rat whole brain membranes
Protocol: Two stereoisomerically related racemic mixtures and inclusive enantiomers were evaluated for in vitro opioid receptor affinity in rat brain membranes (μ and δ opioid) and guinea pig cerebellum (κ opioid receptor). Membranes for radioligand binding were prepared from either rat whole brain or guinea pig cerebellum, supplied by Pel-Freeze Biological Inc. (Rogers, Ark.). Tissues were homogenized in 50 mM TRIS (Tris[hydrooxymethyl]aminomethane) buffer (pH 7.4) containing 50 ug/ml soybean trypsin inhibitor, 1 mM EDTA (Ethylenediaminetetraacetic acid), and 100 μM PMSF (Phenylmethylsulfonyl fluoride). The homogenized brain tissues were centrifuged at 500×g for 30 minutes (4° C.) to remove large debris. The supernatant was polytronically sonicated for 10 seconds (P.E. setting of 2, 4° C.). Sucrose solution was then added to a final concentration of 0.35 M using a 10 mM TRIS-Sucrose buffer (pH 7.4) and the brain membranes were then centrifuged at 40,000×g for 30 minutes (4° C.). The membrane pellets were then washed twice in 10 mM TRIS buffer (pH 7.4) containing 50 μg/ml soybean trypsin inhibitor, 1 mM EDTA, and 100 μM PMSF.
Radioligand binding assays were performed in 10 mM TRIS buffer (pH 7.4) containing 50 μg/ml soybean trypsin inhibitor, 1 mM EDTA, 5 mM MgCl2, and 100 μM PMSF. Tritium-labeled DAMGO (μ), Deltorphin II (δ), or U69593 (κ) purchased from New England Nuclear were used as ligands in competitive experiments (2-3×10^−10 M final concentrations) with non-specific binding defined by 0.5×10^−6 M Naloxone (purchased from SIGMA Chemical Co.). All binding assays were run at room temperature for 90 minutes and then terminated by rapid filtration on GF/C glass fiber filters (Whatman, Hillsboro, Oreg.) with 50 mM TRIS buffer (4° C., pH 7.4) employing a Brandel Semi-automatic Cell Harvester (Model M48, Brandel, Gaithersburg, Md.). The filters were washed twice with 50 mM TRIS buffer (4° C., pH 7.4) and the filters were placed in liquid scintillation cocktail and the bound radioactivity counted on a Beckman LS 6500 scintillation counter. The potency of the compounds in inhibiting the binding of radiolabelled DAMGO (μ), Deltorphin II (δ), or U69593 (κ) was determined from full concentration-effect curves. With the computer program Prism (GraphPad Software Inc., San Diego, Calif.) the IC50 values were determined using a one-site nonlinear regression analysis of the radioligand binding data. The IC50 values were then converted to Ki values using the Cheng-Prusoff equation. (Cheng Y and Prusoff W H (1973) Relationship between the inhibition constant (K1) and the concentration of inhibitor which causes 50 percent inhibition (I50) of a enzymatic reaction. Biochem Pharm 22:3099-3108.)

T2 sequence (P33535 whole entry): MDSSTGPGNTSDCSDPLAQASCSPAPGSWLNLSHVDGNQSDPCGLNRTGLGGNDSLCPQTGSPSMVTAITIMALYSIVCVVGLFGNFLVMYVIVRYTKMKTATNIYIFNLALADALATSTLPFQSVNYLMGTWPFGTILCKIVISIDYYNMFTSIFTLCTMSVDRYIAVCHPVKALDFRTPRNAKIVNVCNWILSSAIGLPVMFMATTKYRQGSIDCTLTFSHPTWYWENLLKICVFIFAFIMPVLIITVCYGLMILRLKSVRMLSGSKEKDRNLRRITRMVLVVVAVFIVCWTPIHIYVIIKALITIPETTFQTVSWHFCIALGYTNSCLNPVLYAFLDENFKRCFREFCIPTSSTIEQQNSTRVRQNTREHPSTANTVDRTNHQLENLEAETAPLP
T1 sequence (P32300 whole entry): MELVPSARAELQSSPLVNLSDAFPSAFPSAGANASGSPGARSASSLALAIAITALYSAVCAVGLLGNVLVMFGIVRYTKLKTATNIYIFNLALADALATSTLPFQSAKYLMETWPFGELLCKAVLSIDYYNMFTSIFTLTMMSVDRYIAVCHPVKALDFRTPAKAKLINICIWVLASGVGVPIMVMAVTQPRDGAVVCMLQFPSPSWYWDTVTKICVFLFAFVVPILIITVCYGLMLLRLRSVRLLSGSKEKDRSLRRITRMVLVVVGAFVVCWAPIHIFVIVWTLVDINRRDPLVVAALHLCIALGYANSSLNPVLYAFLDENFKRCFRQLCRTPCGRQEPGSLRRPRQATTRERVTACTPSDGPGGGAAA

With `C=CCN1C[C@H](C)N([C@H](c2ccsc2)c2cccc(O)c2)C[C@H]1C` [Compound 2, (−)3-((S)-((2S,5R)-4-allyl-2,5-dimethyl-1-piperazinyl)(3-thienyl)methyl)phenol] the EC50 [1] was 14.2 nM, the “Retching or vomiting (emesis)” value (beagle dogs) was “No retching or vomiting was observed” and the “K1 relative to the K1 of its enantiomer DPI-165” value (μ opioid receptor; mu and delta receptor binding) was “approximately 1/1000”. For the same compound, the Ki (μ opioid receptor; rat brain membranes, [3H]DAMGO, read-out: Rat Brain Membrane K1 (nM) μ) was 0.4 nM.
